Test results from US10351501B2, “Gem difluorocompounds as depigmenting or lightening agents” (TFCHEM, priority 2015, dated 2019).
Read-outs that look alike come from different tables or passages of the source.

Assays:
[1] = In vitro human skin absorption, Franz diffusion cell: quantification in the receptor fluid (flux); type: in vitro ADME; conditions: human, 2 mg/ml
From the text: The aim of this study was to evaluate the absorption of compound 11 applied to excised human skin.
In vitro method using a Franz diffusion cell allows measuring the diffusion of chemicals into and across skin.
The tested compound is applied to the surface of a human skin explant separating the two chambers of a Franz diffusion cell. The compound remains on the skin for a specified time under specified conditions. The receptor fluid is sampled at time points throughout the experiment and analyzed for the tested compound. The skin may also be fractioned for separate analysis in epidermis or dermis layers.
The transcutaneous absorption was measured on human skin collected from the abdominoplasty of a single donor. At reception, the skin was defatted and cut in several fragments in order to perform Franz experiment. […]
The tested compounds were quantified, at T0 h and T24 h in the receptor solution bathing the inner surface of the skin (determination of flux), or at T24 h in the fractionated skin extracts (epidermis or dermis). […]
Sampling: 500 μL from the receptor fluid were removed at T0 h (replaced by Ringer solution) and at T24 h. These samples were analyzed by LC-MS/MS method for quantification of compound 11 and deoxyarbutin (results not shown). The quantity measured allowed to calculate a flux and to compare the absorption profile across the skin of compound 11 and deoxyarbutin.

[2] = Antioxidant activity by the spectrophotometric method of the free radical DPPH•
From the text: The aim of the study was to evaluate the antioxidant activity of compound 11 by the spectrophotometric method of the free radical DPPH• (2,2-diphenyl-1-picrylhydrazyl). Indeed, antioxidants react with DPPH^• (purple), a stable free radical which is reduced to DPPH-H (yellow), and in consequence, the absorbance is decreased from the DPPH^• radical to the DPPH-H form. The degree of discoloration indicates the scavenging potential of the antioxidant compounds in terms of hydrogen donating ability (Popovici et al. Revue de génie industriel 2009, 4, 25-39).
The tested compounds were: Trolox ((±)-6-hydroxy-2,5,7,8-tetramethylchromane-2-carboxylic acid, Sigma Aldrich), as reference, and compound 11.
A stock solution of DPPH• was prepared at 200 μmol/mL in methanol and diluted in methanol in order to have a final concentration of around 150 μmol/mL to obtain a DO close to 0.9 in a plate of 96 wells. The antioxidant stock solutions were prepared at 1 mg/mL in methanol and the tested solutions were prepared from these antioxidant stock solutions as described in Table 7 below.
50 μL of each solution of antioxidant was added to the wells. Then, 200 μL of DPPH^• was added to each well.
The blank was prepared with only 250 μl of methanol and the negative control was prepared with 200 μL DPPH• and 50 μL of methanol.
The analysis was started immediately after the addition of DPPH• lasting for 2 hours (readings every 20 seconds). The absorbance was read at 515 nm. Each experiment was performed three times and had shown that the absorbance decreases while the concentration of antioxidant increased.
The activity of DPPH• is a percentage calculated as the ratio of A/An×100%.
The EC50 is expressed as a molar ratio of antioxidant (compound 11)/DPPH• (Popovici et al. Revue de génie industriel 2009, 4, 25-39). The EC50 was determined from the graph representing the percentage of DPPH• in function of the above mentioned molar ratio (moles of compound 11/moles of DPPH•).
The antioxidant activity of compound 11 was compared to that of Trolox used as a reference (considered as 100%).

[3] = target: T1, human recombinant tyrosinase (Homo sapiens, UniProt P14679); test: Inhibition of human tyrosinase in tubo (L-DOPA substrate, OD at 477 nm), IC50; type: biochemical; conditions: for IC50: Tyrosinase Concentration 300 U/mL
T1 sequence (P14679 19-529): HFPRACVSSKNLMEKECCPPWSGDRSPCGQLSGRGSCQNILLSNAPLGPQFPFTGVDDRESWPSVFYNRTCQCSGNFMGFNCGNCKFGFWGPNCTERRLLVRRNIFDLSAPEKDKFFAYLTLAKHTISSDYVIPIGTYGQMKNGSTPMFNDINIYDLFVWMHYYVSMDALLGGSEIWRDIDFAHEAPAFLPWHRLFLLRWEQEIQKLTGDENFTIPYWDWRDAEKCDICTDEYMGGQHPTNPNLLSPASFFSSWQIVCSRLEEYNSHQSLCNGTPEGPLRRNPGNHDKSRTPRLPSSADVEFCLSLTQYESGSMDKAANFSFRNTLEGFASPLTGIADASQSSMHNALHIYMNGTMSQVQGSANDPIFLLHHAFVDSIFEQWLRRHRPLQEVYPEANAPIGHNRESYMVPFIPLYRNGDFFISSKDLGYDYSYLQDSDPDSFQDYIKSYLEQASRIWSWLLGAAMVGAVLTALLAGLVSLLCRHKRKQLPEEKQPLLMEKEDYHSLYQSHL
Method: Substrate solution: L-DOPA (1 mg/mL) Solution B (L-DOPA 20 mg/Purified water up to 20 mL)
Preparation of Test Solutions (for IC50 Test—Examples for Deoxyarbutin)
Inhibitors solutions deoxyarbutin (1 mg/mL): Deoxyarbutin 20 mg in purified water up to 20 mL
This assay used a 96-well plate. Test solutions and controls were made several times.
The results were calculated from the OD measured at time point 20 min.
The determination of half maximal inhibitory concentration (IC50) was performed using the following formula.

## Oc1ccc(OC2CCCCC2(F)F)cc1 (racemic) [Compound 11]
[1]
  Flux, mean (n = 3): 2.71 μg/h/cm^2
[2]; Solution 1 (0.05 mg/mL in methanol)
  A at 515 nm (T = 30 min): 0.505
[2]; Solution 2 (0.10 mg/mL in methanol)
  A at 515 nm (T = 30 min): 0.373
[2]; Solution 3 (0.15 mg/mL in methanol)
  A at 515 nm (T = 30 min): 0.234
[2]; Solution 4 (0.2 mg/mL in methanol)
  A at 515 nm (T = 30 min): 0.233
[2]; Trolox considered as 100%
  antioxidant (free radical scavenger) efficacy compared to that of Trolox: 31.1%
[2]; molar ratio antioxidant/DPPH•, absorbance at T = 30 min
  EC50 (Ratio antioxidant/DPPH•) Mean: 0.772
[3]; mean of 4 tests, read-out: Calculated IC50 Mean (converted)
  IC50: 35.1 µM
[3]; read-out: IC50
  IC50: 35 µM
[3]; time 20 min, read-out: Calculated IC50 Test #1 (converted)
  IC50: 35.1 µM
[3]; time 20 min, read-out: Calculated IC50 Test #2 (converted)
  IC50: 35.1 µM
[3]; time 20 min, read-out: Calculated IC50 Test #3 (converted)
  IC50: 35.1 µM
[3]; time 20 min, read-out: Calculated IC50 Test #4 (converted)
  IC50: 35.1 µM
[3]; comparison of IC50
  inhibits the human recombinant tyrosinase, times more than the Deoxyarbutin: 7-8 times
